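Tested at 5 concentrations; 48 h exposure; 96-well plates; endpoints linearly interpolated, else capped at highest concentration. Abbreviation: GI50, concentration required for 50% inhibition of growth.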 Activity calls are given as the source filed them. No stated cut-off is given here; in the data, active = GI50 up to about 1.1 µM and inactive = higher.
Key:
Assay in all cases: NCI tumour cell line growth inhibition, 48 h
SNB-19 = tested on: SNB-19
MDA-MB-435 = tested on: MDA-MB-435
CCRF-CEM = tested on: CCRF-CEM
A498 = tested on: A498
HL-60 = tested on: HL-60
SR = tested on: SR
HT-29 = tested on: HT-29
OVCAR-4 = tested on: OVCAR-4
Malme-3M = tested on: Malme-3M
MDA-N = tested on: MDA-N
DU-145 = tested on: DU-145
SN12C = tested on: SN12C
NCI/ADR-RES = tested on: NCI/ADR-RES
EKVX = tested on: EKVX
A549 = tested on: A549
MCF7 = tested on: MCF7
NCI-H522 = tested on: NCI-H522
T47D = tested on: T47D

SMILES	GI50 (SNB-19)	GI50 (MDA-MB-435)	GI50 (CCRF-CEM)	GI50 (A498)	GI50 (HL-60)	GI50 (SR)	GI50 (HT-29)	GI50 (OVCAR-4)	GI50 (Malme-3M)	GI50 (MDA-N)	GI50 (DU-145)	GI50 (SN12C)	GI50 (NCI/ADR-RES)	GI50 (EKVX)	GI50 (A549)	GI50 (MCF7)	GI50 (NCI-H522)	GI50 (T47D)
Oc1[nH]c(Nc2cccc(CC(F)(F)F)c2)nc2ncnc1-2	> 100 µM (inactive)	> 100 µM (inactive)	> 100 µM (inactive)	> 100 µM (inactive)	> 100 µM (inactive)	> 100 µM (inactive)	> 100 µM (inactive)	> 100 µM (inactive)	> 100 µM (inactive)	> 100 µM (inactive)	> 100 µM (inactive)	> 100 µM (inactive)	> 100 µM (inactive)	> 100 µM (inactive)	> 100 µM (inactive)	> 100 µM (inactive)	> 100 µM (inactive)	> 100 µM (inactive)
O=c1[nH]nc(Cc2ccccc2)n1/N=C/c1c[nH]c2ccccc12	49.5 µM (inactive)	81.7 µM (inactive)	> 100 µM (inactive)	> 100 µM (inactive)	> 100 µM (inactive)	> 100 µM (inactive)	71.6 µM (inactive)	42.5 µM (inactive)	57.1 µM (inactive)	29.8 µM (inactive)	> 100 µM (inactive)	> 100 µM (inactive)	82.6 µM (inactive)	95.1 µM (inactive)	66.1 µM (inactive)	> 100 µM (inactive)	22.9 µM (inactive)	> 100 µM (inactive)
O=c1c2ccccc2sc2cccc(NCCCN3CCN(CCCNc4cccc5sc6ccccc6c(=O)c45)CC3)c12	> 100 µM (inactive)	> 100 µM (inactive)	> 100 µM (inactive)	> 100 µM (inactive)	> 100 µM (inactive)	> 100 µM (inactive)	> 100 µM (inactive)	> 100 µM (inactive)	> 100 µM (inactive)	> 100 µM (inactive)	> 100 µM (inactive)	> 100 µM (inactive)	> 100 µM (inactive)	> 100 µM (inactive)	> 100 µM (inactive)	> 100 µM (inactive)	> 100 µM (inactive)	> 100 µM (inactive)
Cn1c2c(c3ccccc31)CCN1C(=O)CCC21 (centres undefined)	> 10 µM (inactive)	> 10 µM (inactive)	> 10 µM (inactive)	> 10 µM (inactive)	> 10 µM (inactive)	> 10 µM (inactive)	> 10 µM (inactive)	> 10 µM (inactive)	> 10 µM (inactive)	> 10 µM (inactive)	> 10 µM (inactive)	> 10 µM (inactive)	> 10 µM (inactive)	> 10 µM (inactive)	–	> 10 µM (inactive)	> 10 µM (inactive)	> 10 µM (inactive)
CN(C)/C=N/NC(=O)/C(C#N)=C/N(C)C	> 100 µM (inactive)	> 100 µM (inactive)	> 100 µM (inactive)	> 100 µM (inactive)	> 100 µM (inactive)	> 100 µM (inactive)	> 100 µM (inactive)	> 100 µM (inactive)	75.3 µM (inactive)	> 100 µM (inactive)	> 100 µM (inactive)	> 100 µM (inactive)	> 100 µM (inactive)	> 100 µM (inactive)	> 100 µM (inactive)	> 100 µM (inactive)	> 100 µM (inactive)	> 100 µM (inactive)
CCOC(=O)c1sc2nc(SC)nc3c2c1N=CN3c1ccccc1Cl	29.4 µM (inactive)	> 100 µM (inactive)	65.3 µM (inactive)	10.1 µM (inactive)	79.8 µM (inactive)	26.9 µM (inactive)	> 100 µM (inactive)	17.2 µM (inactive)	35 µM (inactive)	> 100 µM (inactive)	> 100 µM (inactive)	> 100 µM (inactive)	> 100 µM (inactive)	55.3 µM (inactive)	71.3 µM (inactive)	> 100 µM (inactive)	20.5 µM (inactive)	58.5 µM (inactive)
CN(C)CCNC(=O)c1ccc(NCCCN(C)CCCNc2ccc3c(=O)n(CCN(C)C)c(=O)n4c5ccccc5c(=O)c2c34)c2c(O)c3ccccc3nc12	< 0.01 µM (active)	0.0124 µM (active)	< 0.01 µM (active)	0.0759 µM (active)	0.0318 µM (active)	< 0.01 µM (active)	< 0.01 µM (active)	< 0.01 µM (active)	0.0271 µM (active)	0.0332 µM (active)	< 0.01 µM (active)	< 0.01 µM (active)	0.221 µM (active)	0.16 µM (active)	< 0.01 µM (active)	< 0.01 µM (active)	0.0102 µM (active)	0.165 µM (active)
O=C1CSC(/C=C/c2ccccc2)N1c1ccc(-n2c(-c3ccccc3)nc3ccccc3c2=O)cc1 (centres undefined)	> 100 µM (inactive)	> 100 µM (inactive)	66.1 µM (inactive)	> 100 µM (inactive)	> 100 µM (inactive)	37.1 µM (inactive)	> 100 µM (inactive)	19.4 µM (inactive)	> 100 µM (inactive)	> 100 µM (inactive)	> 100 µM (inactive)	> 100 µM (inactive)	59.2 µM (inactive)	> 100 µM (inactive)	> 100 µM (inactive)	52.2 µM (inactive)	50.6 µM (inactive)	17 µM (inactive)
COc1ccc(Oc2cnn(C(Br)(Br)C(C)=O)c(=O)c2Br)cc1	24.5 µM (inactive)	10 µM (inactive)	1.82 µM (inactive)	24.8 µM (inactive)	1.97 µM (inactive)	1.69 µM (inactive)	15.3 µM (inactive)	17.4 µM (inactive)	17.1 µM (inactive)	10.3 µM (inactive)	19.2 µM (inactive)	15 µM (inactive)	18.5 µM (inactive)	17.1 µM (inactive)	24 µM (inactive)	15.4 µM (inactive)	4.56 µM (inactive)	18.5 µM (inactive)
COc1ccc(OC)c(-c2cc(=O)c3c(OC)c(OC)c(OC)c(OC)c3o2)c1	34.4 µM (inactive)	28 µM (inactive)	13.4 µM (inactive)	36.1 µM (inactive)	14.2 µM (inactive)	6.17 µM (inactive)	33.6 µM (inactive)	20 µM (inactive)	24.3 µM (inactive)	35.9 µM (inactive)	25.8 µM (inactive)	27.9 µM (inactive)	22.8 µM (inactive)	33 µM (inactive)	28.5 µM (inactive)	14.5 µM (inactive)	20 µM (inactive)	2.13 µM (inactive)
CC(C)OC(=O)c1ccc(CCc2cc(O)c(Br)cc2O)cc1	14.8 µM (inactive)	8.11 µM (inactive)	3.92 µM (inactive)	21 µM (inactive)	5.85 µM (inactive)	23.7 µM (inactive)	18.7 µM (inactive)	2.31 µM (inactive)	17.2 µM (inactive)	9.55 µM (inactive)	14.4 µM (inactive)	13.4 µM (inactive)	9.2 µM (inactive)	15.3 µM (inactive)	20.3 µM (inactive)	11.7 µM (inactive)	6.24 µM (inactive)	22 µM (inactive)
Cn1c(=O)c2nc(CCCCc3nc4ccccc4[nH]3)[nH]c2n(C)c1=O	> 100 µM (inactive)	> 100 µM (inactive)	> 100 µM (inactive)	> 100 µM (inactive)	> 100 µM (inactive)	> 100 µM (inactive)	> 100 µM (inactive)	> 100 µM (inactive)	> 100 µM (inactive)	> 100 µM (inactive)	> 100 µM (inactive)	> 100 µM (inactive)	> 100 µM (inactive)	> 100 µM (inactive)	> 100 µM (inactive)	> 100 µM (inactive)	> 100 µM (inactive)	> 100 µM (inactive)
CN(C)CCn1c(=O)c2ccc(NCCCN(C)CCCNc3ccc4c(=O)n(CCN(C)C)c(=O)n5c6ccc(O)cc6c(=O)c3c45)c3c(=O)c4cc(O)ccc4n(c1=O)c23	< 0.01 µM (active)	< 0.01 µM (active)	< 0.01 µM (active)	0.0289 µM (active)	0.0342 µM (active)	< 0.01 µM (active)	< 0.01 µM (active)	< 0.01 µM (active)	0.0659 µM (active)	< 0.0337 µM (active)	< 0.01 µM (active)	< 0.01 µM (active)	0.181 µM (active)	0.0933 µM (active)	< 0.01 µM (active)	< 0.01 µM (active)	< 0.01 µM (active)	0.0624 µM (active)
CC#CC#C/C=C1/C=CC2(CCCCO2)O1 (centres undefined)	40.6 µM (inactive)	> 100 µM (inactive)	21.2 µM (inactive)	> 100 µM (inactive)	19.5 µM (inactive)	35.6 µM (inactive)	> 100 µM (inactive)	> 100 µM (inactive)	> 100 µM (inactive)	> 100 µM (inactive)	> 100 µM (inactive)	> 100 µM (inactive)	> 100 µM (inactive)	> 100 µM (inactive)	> 100 µM (inactive)	94.4 µM (inactive)	40.1 µM (inactive)	> 100 µM (inactive)
Brc1cccc(/C=C/CN2CCN(CCOC(c3ccccc3)c3ccccc3)CC2)c1	16.7 µM (inactive)	12.6 µM (inactive)	11.1 µM (inactive)	17.5 µM (inactive)	7.45 µM (inactive)	9.02 µM (inactive)	6.22 µM (inactive)	11.7 µM (inactive)	16.1 µM (inactive)	16.7 µM (inactive)	13.6 µM (inactive)	15 µM (inactive)	14.7 µM (inactive)	17.5 µM (inactive)	15.5 µM (inactive)	14.5 µM (inactive)	14.4 µM (inactive)	3.73 µM (inactive)
